# According to patent US9079922B2, “2-oxo-oxazolidin-3,5-diyl antibiotic derivatives” (priority 2011, dated 2015):
# Experiments:
# [1] = tested on: Acinetobacter baumanii T6474; experiment: Bacterial growth minimal inhibitory concentration (microdilution, cation-adjusted Mueller-Hinton Broth); type: cell-based; conditions: Acinetobacter baumannii, multiply-resistant strain, in particular quinolone resistant
# Procedure: (§1) Bacterial Growth Minimal Inhibitory Concentrations:
# (§2) Minimal inhibitory concentrations (MICs; mg/l) were determined in cation-adjusted Mueller-Hinton Broth by a microdilution method following the description given in “Methods for Dilution Antimicrobial Susceptibility Tests for Bacteria that Grow Aerobically”, Approved standard, 7th ed., Clinical and Laboratory Standards Institute (CLSI) Document M7-A7, Wayne, Pa., USA, 2006.
# (§3) All Example compounds were tested against several Gram positive and Gram negative bacteria. Staphylococcus aureus A798 and Acinetobacter baumanii T6474 are multiply-resistant strains, in particular quinolone resistant.
# [2] = tested on: Staphylococcus aureus A798; experiment: as above; type: cell-based; conditions: multiply-resistant strain, in particular quinolone resistant, read-out: MIC for S. aureus A798
# Procedure: as §1, §2, §3
SMILES,MIC [1] [µg/mL],MIC [2] [µg/mL]
"O=C1COc2ccc(N3C[C@@H](CNC4CN(c5nc6c(cc5F)c(=O)c(C(=O)O)cn6C5CC5)C4)OC3=O)nc2N1 [Example 6, 1-cyclopropyl-6-fluoro-4-oxo-7-(3-{[(R)-2-oxo-3-(3-oxo-3,4-dihydro-2H-pyrido[3,2-b][1,4]oxazin-6-yl)-oxazolidin-5-ylmethyl]-amino}-azetidin-1-yl)-1,4-dihydro-[1,8]naphthyridine-3-carboxylic acid]",0.031,≤ 0.016
"CCn1cc(C(=O)O)c(=O)c2ccc(N3CC(NC[C@@H]4CN(c5ccc6c(n5)NC(=O)CO6)C(=O)O4)C3)nc21 [Example 9, 1-ethyl-4-oxo-7-(3-{[(R)-2-oxo-3-(3-oxo-3,4-dihydro-2H-pyrido[3,2-b][1,4]oxazin-6-yl)-oxazolidin-5-ylmethyl]-amino}-azetidin-1-yl)-1,4-dihydro-[1,8]naphthyridine-3-carboxylic acid]",0.06,0.063
"O=C1COc2ccc(N3C[C@@H](CNC4CN(c5nc6c(cc5F)c(=O)c(C(=O)O)cn6Cc5ccccc5)C4)OC3=O)nc2N1 [Example 13, 1-benzyl-6-fluoro-4-oxo-7-(3-{[(R)-2-oxo-3-(3-oxo-3,4-dihydro-2H-pyrido[3,2-b][1,4]oxazin-6-yl)-oxazolidin-5-ylmethyl]-amino}-azetidin-1-yl)-1,4-dihydro-[1,8]naphthyridine-3-carboxylic acid]",1,≤ 0.016
"O=C1CSc2ccc(N3C[C@@H](CN4CCN(c5cc6c(cc5F)c(=O)c(C(=O)O)cn6C5CC5)CC4)OC3=O)cc2N1 [Example 1, 1-cyclopropyl-6-fluoro-4-oxo-7-{4-[(R)-2-oxo-3-(3-oxo-3,4-dihydro-2H-benzo[1,4]thiazin-6-yl)-oxazolidin-5-ylmethyl]-piperazin-1-yl}-1,4-dihydro-quinoline-3-carboxylic acid]",0.125,≤ 0.016
"COc1c(N2CC(NC[C@@H]3CN(c4ccc5c(n4)NC(=O)CO5)C(=O)O3)C2)ccc2c(=O)c(C(=O)O)cn(C3CC3)c12 [Example 8, 1-cyclopropyl-8-methoxy-4-oxo-7-(3-{[(R)-2-oxo-3-(3-oxo-3,4-dihydro-2H-pyrido[3,2-b][1,4]oxazin-6-yl)-oxazolidin-5-ylmethyl]-amino}-azetidin-1-yl)-1,4-dihydro-quinoline-3-carboxylic acid]",0.25,0.063
"O=C1COc2ccc(N3C[C@H](CN4CCN(c5nc6c(cc5F)c(=O)c5c(O)nsc5n6C5CC5)CC4)OC3=O)nc2N1 [Example 25, 9-cyclopropyl-6-fluoro-3-hydroxy-7-{4-[(S)-2-oxo-3-(3-oxo-3,4-dihydro-2H-pyrido[3,2-b][1,4]oxazin-6-yl)-oxazolidin-5-ylmethyl]-piperazin-1-yl}-9H-1-thia-2,8,9-triaza-cyclopenta[b]naphthalen-4-one]",0.125,≤ 0.016
"Cn1cc(C(=O)O)c(=O)c2ccc(N3CC(NC[C@@H]4CN(c5ccc6c(n5)NC(=O)CO6)C(=O)O4)C3)nc21 [Example 11, 1-methyl-4-oxo-7-(3-{[(R)-2-oxo-3-(3-oxo-3,4-dihydro-2H-pyrido[3,2-b][1,4]oxazin-6-yl)-oxazolidin-5-ylmethyl]-amino}-azetidin-1-yl)-1,4-dihydro-[1,8]naphthyridine-3-carboxylic acid]",0.063,0.063
"O=C1COc2ccc(N3C[C@H](CN4CCN(c5nc6c(cc5F)c(=O)c(C(=O)O)cn6C5CC5)CC4)OC3=O)nc2N1 [Example 19, 1-cyclopropyl-6-fluoro-4-oxo-7-{4-[(S)-2-oxo-3-(3-oxo-3,4-dihydro-2H-pyrido[3,2-b][1,4]oxazin-6-yl)-oxazolidin-5-ylmethyl]-piperazin-1-yl}-1,4-dihydro-[1,8]naphthyridine-3-carboxylic acid]",0.063,≤ 0.016
"O=C1CSc2ccc(N3C[C@H](CN4CCN(c5nc6c(cc5F)c(=O)c(C(=O)O)cn6C5CC5)CC4)OC3=O)cc2N1 [Example 16, 1-cyclopropyl-6-fluoro-4-oxo-7-{4-[(S)-2-oxo-3-(3-oxo-3,4-dihydro-2H-benzo[1,4]thiazin-6-yl)-oxazolidin-5-ylmethyl]-piperazin-1-yl}-1,4-dihydro-[1,8]naphthyridine-3-carboxylic acid]",0.125,≤ 0.016
"Cn1cc(C(=O)O)c(=O)c2cc(F)c(N3CC(NC[C@@H]4CN(c5ccc6c(n5)NC(=O)CO6)C(=O)O4)C3)nc21 [Example 12, 6-fluoro-1-methyl-4-oxo-7-(3-{[(R)-2-oxo-3-(3-oxo-3,4-dihydro-2H-pyrido[3,2-b][1,4]oxazin-6-yl)-oxazolidin-5-ylmethyl]-amino}-azetidin-1-yl)-1,4-dihydro-[1,8]naphthyridine-3-carboxylic acid]",≤ 0.016,≤ 0.016
"O=C1COc2ccc(N3C[C@H](CNC4CCN(c5nc6c(cc5F)c(=O)c(C(=O)O)cn6C5CC5)CC4)OC3=O)nc2N1 [Example 20, 1-cyclopropyl-6-fluoro-4-oxo-7-(4-{[(S)-2-oxo-3-(3-oxo-3,4-dihydro-2H-pyrido[3,2-b][1,4]oxazin-6-yl)-oxazolidin-5-ylmethyl]-amino}-piperidin-1-yl)-1,4-dihydro-[1,8]naphthyridine-3-carboxylic acid]",≤ 0.016,≤ 0.016
"O=C(O)c1cn(C2CC2)c2cc(N3CCNCC3)c(F)cc2c1=O [Cipro, ciprofloxacin, reference compound]",> 32,> 32
"O=C1COc2ccc(N3C[C@H](CNC4CN(c5nc6c(cc5F)c(=O)c5c(O)nsc5n6C5CC5)C4)OC3=O)nc2N1 [Example 24, 9-cyclopropyl-6-fluoro-3-hydroxy-7-(3-{[(S)-2-oxo-3-(3-oxo-3,4-dihydro-2H-pyrido[3,2-b][1,4]oxazin-6-yl)-oxazolidin-5-ylmethyl]-amino}-azetidin-1-yl)-9H-1-thia-2,8,9-triaza-cyclopenta[b]naphthalen-4-one]",0.063,≤ 0.016
"O=C1CSc2ccc(N3C[C@@H](CNC4CN(c5nc6c(cc5F)c(=O)c(C(=O)O)cn6C5CC5)C4)OC3=O)cc2N1 [Example 2, 1-cyclopropyl-6-fluoro-4-oxo-7-(3-{[(R)-2-oxo-3-(3-oxo-3,4-dihydro-2H-benzo[1,4]thiazin-6-yl)-oxazolidin-5-ylmethyl]-amino}-azetidin-1-yl)-1,4-dihydro-[1,8]naphthyridine-3-carboxylic acid]",0.125,≤ 0.016
"COc1c(N2CC(NC[C@@H]3CN(c4ccc5c(c4)NC(=O)CS5)C(=O)O3)C2)ccc2c(=O)c(C(=O)O)cn(C3CC3)c12 [Example 7, 1-cyclopropyl-8-methoxy-4-oxo-7-(3-{[(R)-2-oxo-3-(3-oxo-3,4-dihydro-2H-benzo[1,4]thiazin-6-yl)-oxazolidin-5-ylmethyl]-amino}-azetidin-1-yl)-1,4-dihydro-quinoline-3-carboxylic acid]",0.25,0.063
"O=C1COc2ccc(N3C[C@@H](CNC4CN(c5ccc6c(=O)c(C(=O)O)cn(C7CC7)c6n5)C4)OC3=O)nc2N1 [Example 14, 1-cyclopropyl-4-oxo-7-(3-{[(R)-2-oxo-3-(3-oxo-3,4-dihydro-2H-pyrido[3,2-b][1,4]oxazin-6-yl)-oxazolidin-5-ylmethyl]-amino}-azetidin-1-yl)-1,4-dihydro-[1,8]naphthyridine-3-carboxylic acid]",0.06,0.031
"O=C1CSc2ccc(N3C[C@@H](CNC4CN(c5nc6c(cc5F)c(=O)ccn6C5CC5)C4)OC3=O)cc2N1 [Example 5, 6-((R)-5-{[1-(8-cyclopropyl-3-fluoro-5-oxo-5,8-dihydro-[1,8]naphthyridin-2-yl)-azetidin-3-ylamino]-methyl}-2-oxo-oxazolidin-3-yl)-4H-benzo[1,4]thiazin-3-one]",1,≤ 0.016
"O=C1CSc2ccc(N3C[C@@H](CN4CCN(c5cc6c(cc5F)c(=O)c(C(=O)O)cn6C5CC5)CC4)OC3=O)nc2N1 [Example 3, 1-cyclopropyl-6-fluoro-4-oxo-7-{4-[(R)-2-oxo-3-(3-oxo-3,4-dihydro-2H-pyrido[3,2-b][1,4]thiazin-6-yl)-oxazolidin-5-ylmethyl]-piperazin-1-yl}-1,4-dihydro-quinoline-3-carboxylic acid]",0.063,≤ 0.016
"O=C1COc2ccc(N3C[C@H](CNC4CCN(c5nc6c(cc5F)c(=O)c5c(O)nsc5n6C5CC5)CC4)OC3=O)nc2N1 [Example 23, 9-cyclopropyl-6-fluoro-3-hydroxy-7-(4-{[(S)-2-oxo-3-(3-oxo-3,4-dihydro-2H-pyrido[3,2-b][1,4]oxazin-6-yl)-oxazolidin-5-ylmethyl]-amino}-piperidin-1-yl)-9H-1-thia-2,8,9-triaza-cyclopenta[b]naphthalen-4-one]",≤ 0.016,≤ 0.016
"O=C1COc2ccc(N3C[C@@H](CNC4CCN(c5nc6c(cc5F)c(=O)c(C(=O)O)cn6C5CC5)CC4)OC3=O)nc2N1 [Example 17, 1-cyclopropyl-6-fluoro-4-oxo-7-(4-{[(R)-2-oxo-3-(3-oxo-3,4-dihydro-2H-pyrido[3,2-b][1,4]oxazin-6-yl)-oxazolidin-5-ylmethyl]-amino}-piperidin-1-yl)-1,4-dihydro-[1,8]naphthyridine-3-carboxylic acid]",≤ 0.016,≤ 0.016
"O=C1COc2ccc(N3C[C@H](CNC4CCN(c5nc6c(cc5F)c(=O)c(C(=O)O)cn6C5CC5)C4)OC3=O)nc2N1 (mixture of isomers) [Example 21, 1-cyclopropyl-6-fluoro-4-oxo-7-((RS)-3-{[(S)-2-oxo-3-(3-oxo-3,4-dihydro-2H-pyrido[3,2-b][1,4]oxazin-6-yl)-oxazolidin-5-ylmethyl]-amino}-pyrrolidin-1-yl)-1,4-dihydro-[1,8]naphthyridine-3-carboxylic acid]",0.25,0.125
